From paper PMC10804372, “Degradation by Design: New Cyclin K Degraders from Old CDK Inhibitors” (ACS Chemical Biology, 2024)

Legend:
Cyclin K [1] = assay: Cyclin K levels by Western blot after single-concentration treatment; assay type: cell-based, human; conditions: HEK293T cells, 1 μM for 2 h; for Remaining Cyclin K (%): quantified from Western blots, mean ± SD, three independent experiments; for cyclin K degradation: Western blot
Experimental: (§1) HEK293T human […] kidney cells were cultured in DMEM (Gibco/Life Technologies), containing 25 mM D-glucose, 4 mM L-glutamine, and 1 mM sodium pyruvate, and supplemented with 10% (v/v) FBS and 1% nonessential amino acids (Gibco/Life Technologies). Cells were incubated at 37 °C in a humidified atmosphere with 5% CO2.
(§2) Cells were washed with PBS and lysed (20 mM HEPES pH 7.5, 10% glycerol, 0.4 M KCl, 0.4% Triton X-100, 15 mM EDTA, and 1× protease and phosphatase inhibitors). The insoluble fraction was removed by centrifugation. Protein quantification was performed using a Bradford assay and compared to a BSA calibration curve. Equal amounts of lysates were run on SDS–PAGE 4–12% Bis–Tris Protein Gels (NuPAGE, Thermo Fisher Scientific) and then transferred onto Immobilon-P PVDF Membrane (Millipore, IPVH00010) using a Mini Trans-Blot Cell (Bio-Rad, 1703930). The membranes were blocked with 5% bovine albumin serum (BSA) in Tris-buffered saline with Tween 20 (TBS-T) and incubated with primary antibodies overnight at 4 °C. The membranes were washed three times with TBS-T and incubated with HRP-conjugated secondary antibody (BioRad) for 2 h. Membranes were washed again three times with TBS-T before being developed using Pierce ECL Western Blotting Substrate (Thermo, 32106) and visualized using LI-COR. Antibodies were purchased from Cell Signaling Technology: anti-GAPDH (D4C6R) and anti-DDB1 (D4C8) or Bethyl Laboratories: anti-Cyclin K (A301-939A). The following HRP-linked secondary antibodies were used by dilution in 5% BSA/TBS-T: antirabbit IgG (BioRad, 5213–2504) and antimouse IgG (BioRad, 103005).
(§3) Unedited blots containing the marker lane are available on request. Western blots were quantified using ImageJ. Cyclin K levels were normalized using GAPDH as a loading control. DC50 values were calculated from concentration–response curves using nonlinear regression fit to a 4-parameter curve by GraphPad Prism.

Cyclin K [2] = assay: Cyclin K degradation concentration-response (DC50, DMax) by Western blot; assay type: cell-based, human; conditions: for DMax (%) / DC50: HEK293T, Western blot quantification, 3 biological repeats; for DC50: read-out: CycK DC50
Experimental: With the aim of comparing the degradation ability of the new analogues, we derived DC50 values by using Western blotting (Table 5). […] This approach has been previously used to improve the potency of BCL6 degraders.[33] We therefore also measured CDK12 affinity using the KINOMEscan binding assay (Table 5).[34]
as §1, §2, §3

PAMPA permeability = assay type: in vitro ADME; conditions: for Papp: pH 7.4, PAMPA, pH7.4, read-out: pH7.4 Papp x 10^-6
CDK12 / DDB1 = system: CDK12 / DDB1; parameters: method as in PMID 32494016; conditions: in vitro; cited from earlier work
[3] = parameters: method as in PMID 32494016; conditions: after 5 h of treatment; cited from earlier work
CDK9 = conditions: cited from earlier work
CDK12 = target: T1, CDK12 (Homo sapiens, UniProt Q9NYV4); assay: KINOMEscan binding assay (Eurofins DiscoverX); conditions: KINOMEscan
T1 construct: purchased Eurofins DiscoverX (KINOMEscan service)

HEK293T cells = assay: Proteome-wide quantitation by mass spectrometry (TMT); assay type: cell-based, human; conditions: for log2FC compound 21: 1 uM 2h vs DMSO
CDK1 = conditions: cited from earlier work
CDK5 = conditions: cited from earlier work

T1 sequence (Q9NYV4 whole entry): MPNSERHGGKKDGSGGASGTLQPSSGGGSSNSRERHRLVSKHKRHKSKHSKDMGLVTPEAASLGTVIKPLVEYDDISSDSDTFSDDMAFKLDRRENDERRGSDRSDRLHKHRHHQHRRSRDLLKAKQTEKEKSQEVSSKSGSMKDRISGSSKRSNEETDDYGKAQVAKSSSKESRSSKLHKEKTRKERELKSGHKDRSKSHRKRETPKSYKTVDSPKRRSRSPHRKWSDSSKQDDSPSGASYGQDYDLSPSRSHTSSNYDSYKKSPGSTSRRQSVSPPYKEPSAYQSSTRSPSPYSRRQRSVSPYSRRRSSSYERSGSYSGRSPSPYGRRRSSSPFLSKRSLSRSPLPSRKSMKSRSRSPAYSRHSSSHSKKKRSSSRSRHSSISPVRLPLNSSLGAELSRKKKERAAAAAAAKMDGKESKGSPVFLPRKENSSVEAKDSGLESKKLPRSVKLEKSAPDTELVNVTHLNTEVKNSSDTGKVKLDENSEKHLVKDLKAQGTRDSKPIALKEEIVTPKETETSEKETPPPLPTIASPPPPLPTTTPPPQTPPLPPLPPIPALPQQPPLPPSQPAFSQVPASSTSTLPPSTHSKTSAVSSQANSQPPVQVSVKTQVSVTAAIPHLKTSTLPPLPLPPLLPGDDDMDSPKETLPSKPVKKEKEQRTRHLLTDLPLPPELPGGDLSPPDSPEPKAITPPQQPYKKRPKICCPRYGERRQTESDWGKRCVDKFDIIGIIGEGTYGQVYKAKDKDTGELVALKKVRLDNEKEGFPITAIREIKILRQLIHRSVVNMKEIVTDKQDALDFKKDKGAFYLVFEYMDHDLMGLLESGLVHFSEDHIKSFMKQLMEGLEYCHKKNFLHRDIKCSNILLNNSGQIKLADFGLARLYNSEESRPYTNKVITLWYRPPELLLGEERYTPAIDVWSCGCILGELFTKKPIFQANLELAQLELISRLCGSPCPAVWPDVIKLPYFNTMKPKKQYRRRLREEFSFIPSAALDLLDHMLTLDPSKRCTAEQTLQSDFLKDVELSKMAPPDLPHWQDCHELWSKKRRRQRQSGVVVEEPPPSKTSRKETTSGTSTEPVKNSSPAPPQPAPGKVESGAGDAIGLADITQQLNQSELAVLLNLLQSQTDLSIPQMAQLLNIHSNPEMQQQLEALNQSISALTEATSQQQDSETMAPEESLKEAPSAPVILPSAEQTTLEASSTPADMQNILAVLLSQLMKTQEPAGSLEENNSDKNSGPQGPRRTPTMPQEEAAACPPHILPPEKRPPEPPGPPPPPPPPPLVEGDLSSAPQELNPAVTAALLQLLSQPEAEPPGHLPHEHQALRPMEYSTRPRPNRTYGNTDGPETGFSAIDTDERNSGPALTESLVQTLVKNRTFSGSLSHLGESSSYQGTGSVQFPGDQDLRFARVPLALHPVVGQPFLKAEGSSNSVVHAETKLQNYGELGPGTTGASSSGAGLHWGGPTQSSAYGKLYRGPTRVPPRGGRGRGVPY

DC50 (Cyclin K [2])	Papp (PAMPA permeability)	Kd (CDK12)	SMILES	Remaining Cyclin K (%) (Cyclin K [1])	DMax (%) (Cyclin K [2])	cyclin K degradation (Cyclin K [1])	also measured
[…]	45.4 ×10⁻⁶ cm/s	–	CC[C@H](CO)Nc1nc(NCc2ccc(-c3ccccn3)cc2)c2ncn(C(C)C)c2n1 [compound 1, reference compound]	1 ± 1%	[…]	–	stabilization of the CDK12-DDB1 interaction compared to apo-form (CDK12 / DDB1): 1000 fold; number of other proteins depleted by at least twofold [3]: […]
–	–	–	CC[C@H](CO)Nc1nc(NCc2ccccc2)c2ncn(C(C)C)c2n1 [compound 2, reference compound]	99 ± 1%	–	–	activity at CDK9 (CDK9): sub-μM activity
18 nM	< 0.2 ×10⁻⁶ cm/s	86 nM	CC[C@H](CO)Nc1nc(NCc2ccc(-c3cc(=O)cc[nH]3)cc2)c2ncn(C(C)C)c2n1 [compound 15]	89 ± 11%	>95%	total loss of degradation ability	–
32 nM	40.2 ×10⁻⁶ cm/s	280 nM	CC[C@H](CO)Nc1nc(NCc2ccc(C3=CCOCC3)cc2)c2ncn(C(C)C)c2n1 [compound 21]	1 ± 1%	>95%	complete degradation comparable to CR8	PAMPA permeability (PAMPA permeability): comparable permeabilities; number of proteins showing at least a −0.5 log2 fold change (HEK293T cells; HEK293T, 1 μM, 2 h treatment): six; cyclin K log2 fold decrease (HEK293T cells; HEK293T, 1 μM, 2 h vs DMSO): 2.47 log2 fold; log2FC compound 21 (HEK293T cells; protein CBX6): -0.5911; log2FC compound 21 (HEK293T cells; protein CCNK (Cyclin-K)): -2.4569; log2FC compound 21 (HEK293T cells; protein CDK13): -0.9121; log2FC compound 21 (HEK293T cells; protein FYTTD1): -0.5054; log2FC compound 21 (HEK293T cells; protein HES1): 0.4216
199 nM	33.7 ×10⁻⁶ cm/s	640 nM	CC[C@H](CO)Nc1nc(NCc2ccc(-c3ccco3)cc2)c2ncn(C(C)C)c2n1 [compound 29]	3 ± 2%	>95%	complete degradation	fold decrease in degradation ability versus pyridine counterpart (Cyclin K [2]; furan analogues vs 1 (CR8), 36, 40): 4–8 fold
–	–	–	CCc1cnn2c(NCc3ccc[n+]([O-])c3)cc(N3CCCC[C@H]3CCO)nc12 [dinaciclib]	–	–	–	activity at CDK1 (CDK1): sub-μM activity; activity at CDK5 (CDK5): sub-μM activity
